In patent US6833378B2, “Corticotropin releasing factor antagonists” (Pfizer Inc, priority 2000, dated 2004):
Counter-ions that a name gives are not always drawn.

SMILES | melting point
CCC(CC)Oc1cc(C)nc(Nc2c(C)cc(C)cc2C)c1CNC(=O)CCl [Example 75, 2-Chloro-N-[4-(1-ethyl-propoxy)-6-methyl-2-(2,4,6-trimethyl-phenylamino)-pyridin-3-ylmethyl]-acetamide] | 142 to 144 °C
CCC(CC)Oc1cc(C)nc(Nc2c(C)cc(C)cc2C)c1C(N)=O (as salt: HCl) [Example 78, 4-(1-Ethyl-propoxy)-6-methyl-2-(2,4,6-trimethyl-phenylamino)-nicotinamide] | 185 to 187 °C
CCC(COC)Nc1cc(C)nc(Oc2ccc(OC(F)(F)F)cc2)c1[N+](=O)[O-] (centres unmarked) [Example 1, (1-Methoxymethyl-propyl)-[6-methyl-3-nitro-2-(4-trifluoromethoxy-phenoxy)-pyridin-4-yl]-amine] | 75 to 76 °C
CCC(COC)Nc1cc(C)nc(Oc2c(C=O)cccc2OC)c1[N+](=O)[O-] (centres unmarked) [Example 1, 3-Methoxy-2-[4-(1-methoxymethyl-propylamino)-6-methyl-3-nitro-pyridin-2-yloxy]-benzaldehyde] | 126.5 to 130.5 °C
CCC(CC)Nc1cc(C)nc(Oc2c(C)cc(C)cc2C)c1NC(=O)C(C)Cl (centres unmarked) [Example 2, 2-Chloro-N-[4-(1-ethyl-propylamino)-6-methyl-2-(2,4,6-trimethyl-phenoxy)-pyridin-3-yl]-propionamide] | 170 to 172 °C
CCC(CC)Oc1cc(C)nc(Nc2c(C)cc(C)cc2C)c1CN(C)C.Cl | 85 to 88 °C
CC[C@H]1COC(=O)N1c1cc(C)nc(Oc2c(C)cc(Cl)cc2C)c1C(=O)OC [Example 18, 2-(4-Chloro-2,6-dimethyl-phenoxy)-4-(S)-(4-ethyl-2-oxo-oxazolidin-3-yl)-6-methyl-nicotinic acid methyl ester] | 144 to 145.5 °C
C#CC(CC)Nc1cc(C)nc(Oc2c(C)cc(C)cc2C)c1C(=O)O (centres unmarked) [Example 27, 4-(1-Ethyl-prop-2-ynylamino)-6-methyl-2-(2,4,6-trimethyl-phenoxy)-nicotinic acid] | 131 to 133 °C
CCC(Nc1cc(C)nc(Oc2c(C)cc(Cl)cc2C)c1CO)C(C)O (centres unmarked) [Example 25, 3-[2-(4-Chloro-2,6-dimethyl-phenoxy)-3-hydroxymethyl-6-methyl-pyridin-4-ylamino]-pentan-2ol] | 180 to 182 °C
CCC(COC)Nc1cc(C)nc(Oc2c(OC)cc(OC)cc2OC)c1[N+](=O)[O-] (centres unmarked) [Example 1, (1-Methoxymethyl-propyl)-[6-methyl-3-nitro-2-(2,4,6-trimethoxy-phenoxy)-pyridin-4-yl]-amine] | 126.8 to 129.5 °C
CCOC(=S)SCc1c(OC(CC)CC)cc(C)nc1Nc1c(C)cc(C)cc1C [Example 77, Dithiocarbonic acid O-ethyl ester S-[4-(1-ethyl-propoxy)-6-methyl-2-(2,4,6-trimethyl-phenylamino)-pyridin-3-ylmethyl] ester] | 55 to 57 °C
CCC(CC)Oc1cc(C)nc(Oc2c(C)cc(C)cc2C)c1[N+](=O)[O-] [Example 60, 4-(1-Ethyl-propoxy)-6-methyl-3-nitro-2-(2,4,6-trimethyl-phenoxy)-pyridine] | 106 to 109 °C
CCC(CC)Oc1cc(C)nc(Nc2c(C)cc(C)cc2C)c1C(=O)n1ccnc1 [Example 70, [4-(1-Ethyl-propoxy)-6-methyl-2-(2,4,6-trimethyl-phenylamino)-pyridin-3-yl]-imidazol-1-yl-methanone] | 120 to 122 °C
CCC(O)C(CC)Nc1cc(C)nc(Oc2c(C)cc(Cl)cc2C)c1CO (centres unmarked) [Example 26, 4-[2-(4-Chloro-2,6-dimethyl-phenoxy)-3-hydroxymethyl-6-methyl-pyridin-4-ylamino]-hexan-3-ol] | 145 to 148 °C
CCC(CC)Oc1cc(C)nc(Nc2c(C)cc(C)cc2C)c1CC(C(=O)OC)C(=O)OC [Example 72, 2-[4-(1-Ethyl-propoxy)-6-methyl-2-(2,4,6-trimethyl-phenylamino)-pyridin-3-ylmethyl]-malonic acid dimethyl ester] | 96 to 98 °C
CCC(CC)Nc1cc(C)nc(Oc2c(C)cc(C)cc2C)c1NC(=O)CCCl [Example 2, 3-Chloro-N-[4-(1-ethyl-propylamino)-6-methyl-2-(2,4,6-trimethyl-phenoxy)-pyridin-3-yl]-propionamide] | 183 to 185 °C

More lines, now with the values ahead:

melting point | SMILES
174 to 176 °C | CCC(CC)Oc1nc(C)nc(Nc2c(C)cc(C)cc2C)c1C(N)=O [Example 120, 4-(1-Ethyl-propoxy)-2-methyl-6-(2,4,6-trimethyl-phenylamino)-pyrimidine-5-carboxylic acid amide]
134 to 139 °C | Cc1cc(C)c(Oc2nc(C)cc(C(O)C(F)(F)F)c2C)c(C)c1 (centres unmarked) [Example 99, 1-[3,6-Dimethyl-2-(2,4,6-trimethyl-phenoxy)-pyridin-4-yl]-2,2,2-trifluoro-ethanol]
164.3 °C | CCC(CC)Nc1cc(C)nc(Oc2c(C)cc(C)nc2C)c1C(N)=O [Example 287, 4-(1-Ethyl-propylamino)-6-methyl-2-(2,4,6-trimethyl-pyridin-3-yloxy)-nicotinamide]
122.6 °C | CCC(Nc1cc(C)nc(Oc2c(C)cc(OC)cc2C)c1C(=O)NC)C(C)OC (centres unmarked) [Example 284, 4-(1-Ethyl-2-methoxy-propylamino)-2-(4-methoxy-2,6-dimethyl-phenoxy)-6,N-dimethyl-nicotinamide]
121 to 123 °C | CCC(CC)Oc1nc(C)nc(Nc2c(C)cc(C)cc2C)c1CO [Example 161, [4-(1-Ethyl-propoxy)-2-methyl-6-(2,4,6-trimethyl-phenylamino)-pyrimidin-5-yl]-methanol]
158 to 160 °C | CCC(CC)Nc1cc(C)nc2c1nc(N)n2-c1c(C)cc(C)cc1C [Example 170, N7-(1-Ethyl-propyl)-5-methyl-3-(2,4,6-trimethyl-phenyl)-3H-imidazo[4,5-b]pyridine-2,7-diamine]
197 to 200 °C | CCC(CC)Oc1cc(C)nc(Nc2c(C)cc(C)cc2C)c1C(=O)N(C)C (as salt: HCl) [Example 80, 4-(1-Ethyl-propoxy)-6,N,N-trimethyl-2-(2,4,6-trimethyl-phenylamino)-nicotinamide]
151 to 153 °C | CCC(CC)Oc1cc(C)nc2c1n(C)c(=O)n2-c1c(C)cc(C)cc1C [Example 167, 7-(1-Ethyl-propoxy)-1,5-dimethyl-3-(2,4,6-trimethyl-phenyl)-1,3-dihydro-imidazo[4,5-b]pyridin-2-one]
79 to 82 °C | CCC(CC)Oc1cc(C)nc(Nc2c(C)cc(C)cc2C)c1NC(=O)CCl [Example 124, 2-Chloro-N-[4-(1-ethyl-propoxy)-6-methyl-2-(2,4,6-trimethyl-phenylamino)-pyridin-3-yl]-acetamide]
184 °C | CCC(CC)Nc1cc(C)nc(Oc2c(C)cc(OC)cc2C)c1C(N)=O [Example 262, 4-(1-Ethyl-propylamino)-2-(4-methoxy-2,6-dimethyl-phenoxy)-6-methyl-nicotinamide]
136 to 138 °C | CCC(CC)Nc1cc(C)nc(Nc2c(C)cc(C)cc2C)c1CC(C(=O)OC)C(=O)OC [Example 129, 2-[4-(1-Ethyl-propylamino)-6-methyl-2-(2,4,6-trimethyl-phenylamino)-pyridin-3-ylmethyl]-malonic acid dimethyl ester]
204 to 206 °C | CCC(CC)Nc1cc(C)nc(Nc2c(C)cc(C)cc2C)c1C(N)=O [Example 119, 4-(1-Ethyl-propylamino)-6-methyl-2-(2,4,6-trimethyl-phenylamino)-nicotinamide]
98 to 100 °C | CCC(CC)Oc1cc(C)nc(Nc2c(C)cc(C)cc2C)c1 [Example 90, [4-(1-Ethyl-propoxy)-6-methyl-pyridin-2-yl]-(2,4,6-trimethyl-phenyl)-amine]
118 to 120 °C | CCC(CC)Oc1nc(C)nc(Nc2c(C)cc(C)cc2C)c1C(=O)O [Example 160, 4-(1-Ethyl-propoxy)-2-methyl-6-(2,4,6-trimethyl-phenylamino)-pyrimidine-5-carboxylic acid]
117 to 119 °C | CCC(CC)Nc1cc(C)nc(Oc2c(C)cc(C)cc2C)c1CN [Example 135, [3-Aminomethyl-6-methyl-2-(2,4,6-trimethyl-phenoxy)-pyridin4-yl]-(1-ethyl-propyl)-amine]
184 to 186 °C | CCC(CC)Oc1cc(C)nc2c1[nH]c(=O)n2-c1c(C)cc(C)cc1C [Example 166, 7-(1-Ethyl-propoxy)-5-methyl-3-(2,4,6-trimethyl-phenyl)-1,3-dihydro-imidazo[4,5-b]pyridin-2-one]
